The values that follow come from patent US9156831B2, “Chemical compounds” (ASTRAZENECA AB, priority 2013, dated 2015).

Assay [1] deals with ATR kinase (Homo sapiens (Human), UniProt Q13535). In words: Phospho Chk1 (Ser345) in HT29 cells (ATR cell assay). Type of assay: cell-based. To be noted: Test protocol f, one test replicate only. An excerpt: ATR (Ataxia Telangiectasia+Rad3-related kinase) is a PI3-kinase-related kinase which phosphorylates multiple substrates on serine or threonine residues in response to DNA damage or replication blocks. Chk1, a downstream protein kinase of ATR, plays a key role in DNA damage checkpoint control. Activation of Chk1 involves phosphorylation of Ser317 and Ser345 (the latter regarded as the preferential target for phosphorylation/activation by ATR).
This was a cell based assay to measure inhibition of ATR kinase, by measuring a decrease in phosphorylation of Chk1 (Ser 345) in HT29 cells, following treatment with compound and the UV mimetic 4NQO (Sigma #N8141). HT29 cells (ECACC #85061109) were seeded into 384 well assay plates (Costar #3712) at a density of 6000 cells/well in 40 μl EMEM medium containing 1% L glutamine and 10% FBS and allowed to adhere overnight. The following morning compounds in 100% DMSO were added to assay plates by acoustic dispensing. After 1 hour incubation at 37° C. and 5% CO2, 40 nl of 3 mM 4NQO in 100% DMSO was added to all wells by acoustic dispensing, except minimum control wells which were left untreated with 4NQO to generate a null response control. Plates were returned to the incubator for a further 1 hour. Then cells were fixed by adding 20 μl of 3.7% formaldehyde in PBS solution and incubating for 20 mins at room temperature. Then 20 μl of 0.1% Triton X100 in PBS was added and incubated for 10 minutes at room temperature, to permeabalise cells. Then the plates were washed once with 50 μl/well PBS, using a Biotek EL405 plate washer.
Phospho-Chk1 Ser 345 antibody (Cell Signalling Technology #2348) was diluted 150 fold in PBS containing 0.05% polysorbate/Tween and 15 μl was added to each well and incubated over night at room temperature. The next morning plates were washed three times with 50 μl/well PBS, using a Biotek EL405 plate washer, and then 20 μl of secondary Ab solution, containing 500 fold diluted Alexa Fluor 488 Goat anti-rabbit IgG (Molecular Probes #A-11008) and 0.002 mg/ml Hoeschst dye (Molecular Probes #H-3570), in PBST, was added. After 2 hours incubation at room temperature, the plates were washed three times with 50 μl/well PBS, using a Biotek EL405 plate washer, and plates were then sealed with black plate seals until read. Plates were read using an ArrayScan VTI instrument, using an XF53 filter with 10× objective. A two laser set up was used to analyse nuclear staining with Hoeschst (405 nM) and secondary antibody staining of pChk1 (488 nM).

For assay [2], the target named is PI3K-δ (Homo sapiens (Human), UniProt O00329). In words: In vitro enzyme inhibition assay (Kinase Glo). Type of assay: biochemical. The settings on record: Test protocol a; mean of replicates. The method, then:
(§1) The inhibition of PI3K-β, PI3K-α, PI3K-γ and PI3K-δ was evaluated in a Kinase Glo based enzyme activity assay using human recombinant enzymes. The assay platform indirectly measured the depletion of ATP after incubation with enzyme, PIP2 substrate, ATP and compound.
(§2) After completion of the enzyme reaction the remaining ATP was used in a secondary enzymatic reaction, where Luciferase converted beetle luciferin into oxyluciferin under the emission of light. A direct relationship existed between the luminescence measured and the ATP remaining in a completed kinase reaction. Therefore, the luminescence was inversely related to the kinase activity.
(§3) Compounds in 100% DMSO were added to assay plates by acoustic dispensing. PI3K enzyme was added in a Tris buffer (50 mM Tris pH7.4, 0.05% CHAPS, 2.1 mM DTT, and 10 mM magnesium chloride) and allowed to preincubate with compound for 20 minutes prior to addition of substrate solution containing PIP2 and ATP. The enzyme reaction was stopped after 80 minutes by the addition of Kinase Glo detection solution containing Lucferin and Luciferase (from Kinase Glo® Plus Luminecent Kinase Assay kit (Promega #V3772). Plates were left for 30 minutes at room temperature then read on a Pherastar Instrument with a standard Luminescence filter block. The final concentration of DMSO, ATP and PIP2 in the assay were, 1%, 8 μM, and 80 μM respectively.
(§4) IC50 values were calculated using a log curve fitting to a non-linear regression fit.
(In Kinase-Glo more light means more ATP remaining.)

Assay [3] deals with PI3K-β (Homo sapiens (Human), UniProt P42338). In words: In vitro enzyme inhibition assay (Kinase Glo). In kind it is biochemical. The settings on record: Test protocol a; mean of replicates. The method, then: as §1, §2, §3, §4
Assay [4] relates to BT474 xenograft. In words: Tumour growth inhibition, BT474 xenograft model. Type of assay: in vivo, mouse. The method, then: BT474 is an estrogen receptor positive breast tumour cell lines with elevated Her2 expression and carries a mutation in the PIK3CA gene (K111N). Female Swiss athymic nude mice (swiss nu/nu-AZUK) were transplanted subcutaneously with human epithelial breast ductal carcinoma cell line BT474c (derived in AZ from BT474-ATCC HTB-20) tumours passaged in mice. Mice were implanted with 0.36 mg 60 day oestrogen pellet (Innovative Research of America) 24 hours prior to cell implantation. 5×10^6 cells in 50% matrigel (BD Bioscience) were injected s.c. on the left flank of the animals.
(§5) Animals were randomised into groups of 10-15 when tumours reached a volume of ˜200-300 mm^3 and treatment commenced. Animals were dosed for 3-4 weeks by peroral route, with compound in a suitable vehicle at defined doses and schedules. Tumours were measured two-three times weekly by caliper and volume of tumours calculated using elliptical formula (pi/6×width×width×length).

Assay [5] deals with PI3K-α (Homo sapiens (Human), UniProt P42336, K111N). In words: Phosphorylated AKT (Thr308) in BT474 cells (PI3K-α cell assay). In kind it is cell-based. The settings on record: Test protocol c, mean of replicates.
In assay [6] the target is PI3K-α (Homo sapiens (Human), UniProt P42336). In words: In vitro enzyme inhibition assay (Kinase Glo). Type of assay: biochemical. To be noted: Test protocol a; mean of replicates. The protocol:
as §1, §2, §3, §4

Assay [7] deals with MCF7 xenograft. In words: Tumour growth inhibition, MCF7 xenograft model. Type of assay: in vivo, mouse. The settings on record: olaparib alone 100 mg/kg QD every day; FIG. 12. The protocol: MCF7 is an estrogen receptor positive breast tumour cell line carrying a mutation in the PIKC3CA gene (E545K). […] SCID mice (AZ UK) were transplanted subcutaneously (s.c.) with human breast adenocarcinoma cell line MCF7 (ICRF London) to determine anti-tumour activity of PI3 kinase inhibitors. Mice were implanted with a 0.5 mg 21 day oestrogen pellet (Innovative Research of America) 24 hours prior to cell implantation. 5×10^6 cells in 50% matrigel (BD Bioscience) were injected s.c. on the left flank of the animals.
as §5

The subject of assay [8] is HCC70 xenograft. In words: Tumour growth inhibition, HCC70 xenograft model. To be noted: AZD8186 alone 50 mg/kg BID every day; FIG. 13. Type of assay: in vivo, mouse. The protocol: HCC70 is breast tumour cell line which is deficient in PTEN gene expression. Female Swiss athymic nude mice (swiss nu/nu—AZUK) were transplanted subcutaneously with the breast ductal epithelial tumour cell line HCC70 (ATCC—CRL2315) cells. 1×10^6 cells in 50% matrigel (BD Bioscience) were injected s.c. on the left flank of the animals.
as §5

Usually IC50 stands for the concentration at which inhibition is half-maximal.

PI3K-α (Homo sapiens (Human), UniProt P42336, K111N), sequence (P42336 whole entry K111N, looked up): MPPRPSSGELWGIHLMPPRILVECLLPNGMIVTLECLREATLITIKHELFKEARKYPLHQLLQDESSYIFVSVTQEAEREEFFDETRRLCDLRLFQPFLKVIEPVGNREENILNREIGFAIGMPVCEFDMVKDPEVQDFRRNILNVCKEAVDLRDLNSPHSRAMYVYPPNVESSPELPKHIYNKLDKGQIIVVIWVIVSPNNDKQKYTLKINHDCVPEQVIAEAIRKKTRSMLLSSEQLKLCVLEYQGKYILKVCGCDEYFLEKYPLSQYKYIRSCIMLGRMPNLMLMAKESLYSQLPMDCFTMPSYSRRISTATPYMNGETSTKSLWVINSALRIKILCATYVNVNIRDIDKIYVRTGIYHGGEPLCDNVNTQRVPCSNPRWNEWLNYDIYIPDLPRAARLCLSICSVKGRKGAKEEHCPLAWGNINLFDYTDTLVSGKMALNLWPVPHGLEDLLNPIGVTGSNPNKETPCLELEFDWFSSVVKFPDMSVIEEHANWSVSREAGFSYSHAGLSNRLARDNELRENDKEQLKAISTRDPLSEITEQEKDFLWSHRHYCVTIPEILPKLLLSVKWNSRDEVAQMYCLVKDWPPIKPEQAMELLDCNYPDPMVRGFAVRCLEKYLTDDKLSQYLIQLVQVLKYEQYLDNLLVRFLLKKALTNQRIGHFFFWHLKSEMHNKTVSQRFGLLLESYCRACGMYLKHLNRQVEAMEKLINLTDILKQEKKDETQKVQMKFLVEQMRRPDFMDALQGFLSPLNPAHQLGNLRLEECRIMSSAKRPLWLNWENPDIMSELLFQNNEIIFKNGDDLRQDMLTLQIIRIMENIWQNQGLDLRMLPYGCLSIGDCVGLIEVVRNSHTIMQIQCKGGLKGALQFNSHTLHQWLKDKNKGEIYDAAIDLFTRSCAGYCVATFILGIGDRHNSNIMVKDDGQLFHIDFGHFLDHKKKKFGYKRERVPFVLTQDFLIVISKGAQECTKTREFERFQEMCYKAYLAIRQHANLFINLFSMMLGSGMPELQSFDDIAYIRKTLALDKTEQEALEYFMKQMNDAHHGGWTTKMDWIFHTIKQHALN
PI3K-α (Homo sapiens (Human), UniProt P42336, K111N), sequence (P27986 whole entry partner, looked up): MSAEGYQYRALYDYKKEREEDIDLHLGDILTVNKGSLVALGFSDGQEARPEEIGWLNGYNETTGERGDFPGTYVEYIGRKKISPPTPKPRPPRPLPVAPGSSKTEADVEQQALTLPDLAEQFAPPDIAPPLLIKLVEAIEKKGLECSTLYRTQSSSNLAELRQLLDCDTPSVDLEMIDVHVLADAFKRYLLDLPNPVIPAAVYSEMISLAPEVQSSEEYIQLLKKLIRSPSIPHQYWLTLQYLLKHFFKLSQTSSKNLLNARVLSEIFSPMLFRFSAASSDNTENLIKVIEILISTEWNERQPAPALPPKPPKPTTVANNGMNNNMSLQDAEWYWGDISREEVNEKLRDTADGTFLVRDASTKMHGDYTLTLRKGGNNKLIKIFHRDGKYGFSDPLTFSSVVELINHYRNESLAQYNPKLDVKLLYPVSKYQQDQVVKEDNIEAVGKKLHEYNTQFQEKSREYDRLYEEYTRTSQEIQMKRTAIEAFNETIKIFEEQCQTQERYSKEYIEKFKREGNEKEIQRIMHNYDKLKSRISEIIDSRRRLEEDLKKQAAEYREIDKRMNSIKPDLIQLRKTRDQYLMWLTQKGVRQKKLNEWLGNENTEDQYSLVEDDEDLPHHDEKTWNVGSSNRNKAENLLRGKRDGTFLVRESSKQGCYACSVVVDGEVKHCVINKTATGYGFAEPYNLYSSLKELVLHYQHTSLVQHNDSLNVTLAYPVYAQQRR
PI3K-δ, sequence (O00329 whole entry): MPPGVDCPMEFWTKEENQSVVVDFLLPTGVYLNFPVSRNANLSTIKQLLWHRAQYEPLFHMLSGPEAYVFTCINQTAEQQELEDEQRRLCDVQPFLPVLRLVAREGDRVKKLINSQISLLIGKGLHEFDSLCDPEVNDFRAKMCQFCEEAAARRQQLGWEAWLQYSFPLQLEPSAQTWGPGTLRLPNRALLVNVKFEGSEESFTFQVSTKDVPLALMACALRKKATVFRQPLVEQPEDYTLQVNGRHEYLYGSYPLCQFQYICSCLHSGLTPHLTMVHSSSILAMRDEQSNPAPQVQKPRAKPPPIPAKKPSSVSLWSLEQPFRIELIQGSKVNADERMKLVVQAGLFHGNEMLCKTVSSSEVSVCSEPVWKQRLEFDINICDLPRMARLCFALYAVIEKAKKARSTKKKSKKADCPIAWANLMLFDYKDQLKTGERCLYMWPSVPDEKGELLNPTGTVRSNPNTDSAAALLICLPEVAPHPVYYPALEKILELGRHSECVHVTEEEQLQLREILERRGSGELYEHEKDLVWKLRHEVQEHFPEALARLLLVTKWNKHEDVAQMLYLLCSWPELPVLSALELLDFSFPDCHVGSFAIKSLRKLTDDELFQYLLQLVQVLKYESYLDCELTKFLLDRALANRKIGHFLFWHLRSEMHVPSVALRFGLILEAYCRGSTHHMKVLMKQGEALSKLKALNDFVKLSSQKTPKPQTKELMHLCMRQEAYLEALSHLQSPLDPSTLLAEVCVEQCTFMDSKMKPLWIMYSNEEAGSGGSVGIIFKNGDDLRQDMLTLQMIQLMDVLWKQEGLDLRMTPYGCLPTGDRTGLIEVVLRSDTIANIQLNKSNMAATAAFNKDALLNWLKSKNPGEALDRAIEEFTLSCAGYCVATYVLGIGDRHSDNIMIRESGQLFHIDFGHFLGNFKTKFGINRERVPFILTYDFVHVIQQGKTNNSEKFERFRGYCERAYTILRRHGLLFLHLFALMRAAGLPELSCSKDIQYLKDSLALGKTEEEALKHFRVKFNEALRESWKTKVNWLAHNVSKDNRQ
PI3K-δ, sequence (P27986 whole entry partner): as the sequence (P27986 whole entry partner, looked up) above
PI3K-β, sequence (P42338 whole entry): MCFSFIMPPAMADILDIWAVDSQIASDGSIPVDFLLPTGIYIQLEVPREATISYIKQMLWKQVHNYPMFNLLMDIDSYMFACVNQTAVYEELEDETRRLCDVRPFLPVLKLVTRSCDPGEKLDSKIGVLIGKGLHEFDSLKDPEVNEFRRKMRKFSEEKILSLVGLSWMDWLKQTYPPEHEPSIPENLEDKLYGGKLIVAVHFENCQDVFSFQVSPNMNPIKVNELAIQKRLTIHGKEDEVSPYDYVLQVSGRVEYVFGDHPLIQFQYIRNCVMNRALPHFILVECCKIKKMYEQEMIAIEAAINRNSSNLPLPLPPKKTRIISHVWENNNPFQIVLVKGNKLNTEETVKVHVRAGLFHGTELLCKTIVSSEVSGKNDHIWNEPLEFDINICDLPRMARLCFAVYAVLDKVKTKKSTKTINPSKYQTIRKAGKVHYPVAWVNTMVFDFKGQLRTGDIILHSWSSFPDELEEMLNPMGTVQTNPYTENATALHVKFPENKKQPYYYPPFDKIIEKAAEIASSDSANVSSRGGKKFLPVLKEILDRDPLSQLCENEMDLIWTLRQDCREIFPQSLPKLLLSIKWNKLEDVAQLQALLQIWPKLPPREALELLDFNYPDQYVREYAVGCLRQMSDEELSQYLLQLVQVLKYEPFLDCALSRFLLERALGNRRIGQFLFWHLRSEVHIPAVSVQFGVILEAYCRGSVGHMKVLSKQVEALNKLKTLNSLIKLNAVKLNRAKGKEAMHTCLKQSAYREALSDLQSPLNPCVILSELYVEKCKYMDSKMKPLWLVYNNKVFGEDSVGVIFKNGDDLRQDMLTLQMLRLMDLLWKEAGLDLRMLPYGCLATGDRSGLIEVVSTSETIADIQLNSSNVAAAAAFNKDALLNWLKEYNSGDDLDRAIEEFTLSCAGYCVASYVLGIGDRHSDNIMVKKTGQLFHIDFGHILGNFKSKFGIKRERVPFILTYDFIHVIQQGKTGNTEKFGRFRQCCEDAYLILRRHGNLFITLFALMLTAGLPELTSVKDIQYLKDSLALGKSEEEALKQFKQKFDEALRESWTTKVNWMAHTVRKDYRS
PI3K-β, sequence (P27986 whole entry partner): as the sequence (P27986 whole entry partner, looked up) above
PI3K-α (Homo sapiens (Human), UniProt P42336), sequence (P42336 whole entry, looked up): as the sequence (P42336 whole entry K111N, looked up) above, with N111K counted along it
PI3K-α (Homo sapiens (Human), UniProt P42336), sequence (P27986 whole entry partner, looked up): as the sequence (P27986 whole entry partner, looked up) above

For `C[C@H](CO)C(=O)N1CCC(c2nc(-c3cnc(N)c(-c4nnc(C(C)(C)C)o4)n3)n(C)n2)CC1` [Example 6, (2R)-1-[4-[5-[5-amino-6-(5-tert-butyl-1,3,4-oxadiazol-2-yl)pyrazin-2-yl]-1-methyl-1,2,4-triazol-3-yl]-1-piperidyl]-3-hydroxy-2-methyl-propan-1-one], the values for the IC50 in assay [1], in assay [2] and in assay [3] were more than 30000 nM, less than 12 nM and 3420 nM, respectively.
Consider `NC1(C(=O)N[C@@H](CCO)c2ccc(Cl)cc2)CCN(c2ncnc3[nH]ccc23)CC1` [AZD5363, (S)-4-amino-N-(1-(4-chlorophenyl)-3-hydroxypropyl)-1-(7H-pyrrolo[2,3-d]pyrimidin-4-yl)piperidine-4-carboxamide, reference compound], for which the tumour growth entry in assay [4] (AZD5363 alone 100 mg/kg BID, 2 days on/5 days off, vs vehicle, FIG. 10) is reported as “partially inhibited tumour growth”; in assay [4] (AZD5363 alone 170 mg/kg BID, 2 days on/5 days off, vs vehicle, FIG. 9), “partially inhibited tumour growth”.
Consider `Cn1nc(C2CCN(C(=O)C(C)(C)O)CC2)nc1-c1cnc(N)c(-c2nnc(C(C)(C)C)o2)n1` [Example 7, 1-[4-[5-[5-amino-6-(5-tert-butyl-1,3,4-oxadiazol-2-yl)pyrazin-2-yl]-1-methyl-1,2,4-triazol-3-yl]-1-piperidyl]-2-hydroxy-2-methyl-propan-1-one], for which the concentration for half-maximal inhibition (IC50) is 420 nM in assay [5]; more than 30000 nM in assay [1]; 14 nM in assay [2]; 37 nM in assay [6]; 6260 nM in assay [3].
On to `CCn1nc(C2CCN(C(=O)CC(=O)O)CC2)nc1-c1cnc(N)c(-c2nnc(C(C)(C)C)o2)n1` [Example 9, 3-[4-[5-[5-amino-6-(5-tert-butyl-1,3,4-oxadiazol-2-yl)pyrazin-2-yl]-1-ethyl-1,2,4-triazol-3-yl]-1-piperidyl]-3-oxo-propanoic acid], for which the IC50 is less than 10 nM in assay [2] and 640 nM in assay [3].
Take `Cn1nc(C2CCN(C(=O)CC(=O)O)CC2)nc1-c1cnc(N)c(-c2nnc(C(C)(C)C)o2)n1` [Example 8, 3-[4-[5-[5-amino-6-(5-tert-butyl-1,3,4-oxadiazol-2-yl)pyrazin-2-yl]-1-methyl-1,2,4-triazol-3-yl]-1-piperidyl]-3-oxo-propanoic acid]: the IC50 is 590 nM in assay [5]; more than 30000 nM in assay [1]; 12 nM in assay [2]; 24 nM in assay [6]; 1520 nM in assay [3].
As for `O=C(c1cc(Cc2n[nH]c(=O)c3ccccc23)ccc1F)N1CCN(C(=O)C2CC2)CC1` [olaparib, 4-[3-(4-cyclopropanecarbonyl-piperazine-1-carbonyl)-4-fluoro-benzyl]-2H-phthalazin-1-one, reference compound], the tumour growth entry is on record as “no significant effect on tumour growth” in assay [4] (olaparib alone 100 mg/kg QD every day, FIG. 11) and “minimal effect on tumour growth” in assay [7].
`CCn1nc(C2CCN(C(=O)[C@@H](O)CO)CC2)nc1-c1cnc(N)c(-c2nnc(C(C)(C)C)o2)n1` [Example 10, (2S)-1-[4-[5-[5-amino-6-(5-tert-butyl-1,3,4-oxadiazol-2-yl)pyrazin-2-yl]-1-ethyl-1,2,4-triazol-3-yl]-1-piperidyl]-2,3-dihydroxy-propan-1-one]: in assay [5], the IC50 is 85 nM.
Same read-out and setting: the same measure for `CCn1nc(C2CCN(C(=O)[C@H](O)CO)CC2)nc1-c1cnc(N)c(-c2nnc(C(C)(C)C)o2)n1` [Example 11, (2R)-1-[4-[5-[5-amino-6-(5-tert-butyl-1,3,4-oxadiazol-2-yl)pyrazin-2-yl]-1-ethyl-1,2,4-triazol-3-yl]-1-piperidyl]-2,3-dihydroxy-propan-1-one]: 110 nM.
Turning to `C[C@@H](O)CC(=O)N1CCC(c2nc(-c3cnc(N)c(-c4nnc(C(C)(C)C)o4)n3)n(C)n2)CC1` [Example 4, (3R)-1-[4-[5-[5-amino-6-(5-tert-butyl-1,3,4-oxadiazol-2-yl)pyrazin-2-yl]-1-methyl-1,2,4-triazol-3-yl]-1-piperidyl]-3-hydroxy-butan-1-one], the IC50 in assay [1] is more than 30000 nM; in assay [2] it was less than 12 nM; in assay [3], 2910 nM.
With `C[C@@H](Nc1cc(F)cc(F)c1)c1cc(C(=O)N(C)C)cc2c(=O)cc(N3CCOCC3)oc12` [AZD8186, 8-((1R)-1-(3,5-difluorophenylamino)ethyl)-N,N-dimethyl-2-morpholino-4-oxo-4H-chromene-6-carboxamide, reference compound], the tumour growth result in assay [8] is on record as “partially inhibited tumour growth”.
For the compound `C[C@H](O)CC(=O)N1CCC(c2nc(-c3cnc(N)c(-c4nnc(C(C)(C)C)o4)n3)n(C)n2)CC1` [Example 5, (3S)-1-[4-[5-[5-amino-6-(5-tert-butyl-1,3,4-oxadiazol-2-yl)pyrazin-2-yl]-1-methyl-1,2,4-triazol-3-yl]-1-piperidyl]-3-hydroxy-butan-1-one], the IC50 was more than 30000 nM in assay [1], 12 nM in assay [2] and 3310 nM in assay [3].
